Patent US7192728B2, “Screening assays for agents that alter inhibitor of apoptosis (IAP) protein regulation of caspase activity” (The Burnham Institute, priority 1997, dated 2007)

Legend:
pro-caspase-9 [1] = test: Cytochrome c-induced processing of pro-caspase-9 in 293 cytosolic extracts; format: biochemical, human; conditions: for cytochrome c-induced pro-caspase-9 processing (in words): 0.2 μM GST-IAP, 30 min at 30° C.
Procedure: Cytochrome c induced processing of pro-caspase-9 was subsequently monitored by SDS-PAGE and autoradiography.
Pro-caspase-9 inhibition by Ac-DEVD-fmk, zVAD-fmk and XIAP was compared as follows. In vitro translated ^35S-labeled pro-caspase-9 was added to cytosolic extracts from 293 cells containing 10 μM cytochrome c and 1 mM dATP. Samples were incubated at 30° C. for 30 minutes in the presence of the indicated concentrations of inhibitors. Proteins were separated on SDS-PAGE gels, dried directly, and exposed to film.

pro-caspase-9 [2] = test: Co-immunoprecipitation of pro-caspase-9 with myc-tagged IAPs in 293T cells; format: binding, human; conditions: anti-myc immunoprecipitation, anti-FLAG blot
Procedure: (§1) Co-immunoprecipitations and immunoblot assays were performed as follows. […] Cells were collected 24–48 hrs later by centrifugation, washed in ice cold PBS and lysed for 20 minutes in lysis buffer (10 mM Hepes, 142 mM KCl, 5 mM MgCl2, 1 mM EGTA, 0.2% NP-40). Lysates were cleared by centrifugation at 16,000×g for 30 minutes. Myc-tagged IAP proteins were immunoprecipitated with 40 μl of anti-myc 9E10 antibody immobilized on Protein G-Sepharose (Santa Cruz) for 2 hrs. Immunoprecipitates were washed 3 times with lysis buffer, and bound proteins separated by SDS-PAGE and analyzed by immunoblotting using antibodies specific for the FLAG epitope (Kodak, Inc.), myc-epitope, or caspase-3.
Cell lysates were prepared 16 hr later for either (A) immunoblot analysis of caspase-3, or (B) DEVD-AFC. Immunoblot analysis of pro-caspase-3 was performed with lysates from cells induced to undergo apoptosis by overexpressing pro-caspase-9 in the absence or presence of the IAPs. For DEVD-AFC analysis, lysates were normalized for total protein content and assayed for hydrolysis of DEVD-AFC as described above. […] Lysates from the same cell (50 μg per lane) were also analyzed by immunoblotting using anti-FLAG and anti-myc antibodies to verify expression of […].

293T cells = test: Caspase-9-induced pro-caspase-3 processing and apoptosis in transfected 293T cells; format: cell-based, human; conditions: co-transfection with FLAG-caspase-9; for number of apoptotic 293T cells (in words): DAPI staining
Procedure: as §1
Cell lysates were prepared 16 hr later for either (A) immunoblot analysis of caspase-3, or (B) DEVD-AFC. Immunoblot analysis of pro-caspase-3 was performed with lysates from cells induced to undergo apoptosis by overexpressing pro-caspase-9 in the absence or presence of the IAPs. For DEVD-AFC analysis, lysates were normalized for total protein content and assayed for hydrolysis of DEVD-AFC as described above. […] In panel D, IAP proteins were immunoprecipitated with anti-myc antibody immobilized on protein G-Sepharose at ˜16 hours post-transfection. Immunoblot analysis with anti-FLAG antibody was employed for detection of pro-caspase-9 in the resulting immune complexes. Lysates from the same cell (50 μg per lane) were also analyzed by immunoblotting using anti-FLAG and anti-myc antibodies to verify expression of […].

caspase-7 = biological target: T1, caspase-7 (Homo sapiens, UniProt P55210); test: GST pull-down binding to caspase-7; conditions: glutathione-Sepharose beads, immunoblot
T1 construct: Purified active caspase concentrations ranged from 0.1 nM to 10 nM; His6; made in house; host or cells: E. coli BL21(DE3)pLysS
T1 sequence (P55210 24-198 limits assumed): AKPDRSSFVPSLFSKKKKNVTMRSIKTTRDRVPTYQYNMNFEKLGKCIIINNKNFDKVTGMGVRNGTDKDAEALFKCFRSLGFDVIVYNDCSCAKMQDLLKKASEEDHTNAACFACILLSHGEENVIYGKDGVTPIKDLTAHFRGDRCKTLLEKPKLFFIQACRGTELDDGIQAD
T1 sequence (P55210 207-303 limits assumed): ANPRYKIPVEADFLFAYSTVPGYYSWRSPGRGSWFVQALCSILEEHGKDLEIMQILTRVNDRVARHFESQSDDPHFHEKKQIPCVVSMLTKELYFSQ
Procedure: (§2) Following incubation at 4° C. for 60 min, the beads were removed by centrifugation and washed twice with 100 vol 50 mM Tris (pH 7.5), 150 mM KCl, 2 mM DTT and 0.025% Triton-X100, then subjected to SDS-PAGE and immunoblot assay (see Example I.B.3).

pro-caspase-9 [3] = biological target: T2, pro-caspase-9 (Homo sapiens, UniProt P55211); test: In vitro reconstituted pro-caspase-9 processing (Apaf-1, cytochrome c, dATP); format: biochemical; conditions: 0.1 μM protein; Apaf-1, 10 μM cytochrome c, 1 mM dATP
T2 construct: in vitro translated ^35S-labeled pro-caspase-9 and Apaf-1 were incubated individually or together; His6; made in house; host or cells: coupled in vitro transcription/translation in reticulocyte lysate (TNT kit, Promega)
T2 sequence (P55211 1-416): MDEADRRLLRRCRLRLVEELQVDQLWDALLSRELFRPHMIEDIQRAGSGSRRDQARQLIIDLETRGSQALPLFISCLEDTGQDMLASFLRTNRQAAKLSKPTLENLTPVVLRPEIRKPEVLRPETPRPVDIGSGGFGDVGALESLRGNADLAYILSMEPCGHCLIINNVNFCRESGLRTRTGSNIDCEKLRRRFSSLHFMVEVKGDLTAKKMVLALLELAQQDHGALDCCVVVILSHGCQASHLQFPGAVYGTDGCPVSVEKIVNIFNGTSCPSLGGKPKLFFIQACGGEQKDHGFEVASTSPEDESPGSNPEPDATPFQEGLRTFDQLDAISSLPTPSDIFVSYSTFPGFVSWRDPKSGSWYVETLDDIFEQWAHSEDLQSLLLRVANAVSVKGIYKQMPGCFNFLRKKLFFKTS
Procedure: For the results shown in FIGS. 5A and 5B, in vitro translated ^35S-labeled pro-caspase-9 and Apaf-1 were incubated individually or together with 10 μM cytochrome c and 1 mM dATP. Processing of pro-caspase-9 in the absence or presence of 0.1 μM of the indicated GST-IAP or 0.1 μM Bcl-XL was then monitored by SDS-PAGE and autoradiography.
To assay caspase-9 activation in vitro, one microgram of plasmids containing cDNAs encoding pro-caspase-9 (pET21(b)-Mch-6) or Apaf-1 (pcDNA3-Apaf-1) was in vitro transcribed and translated in the presence of [^35S]-L-methionine using a coupled transcription/translation TNT kit (Promega) according to manufacturer's instructions. Proteins were desalted and exchanged into Buffer A with Bio-spin P-6 columns (BioRad). […] The reactions were analyzed by SDS-PAGE and autoradiography. For some experiments, in vitro translated His6-caspase-9 was purified by metal chromatography.

caspase-3 = biological target: T3, caspase-3 (Homo sapiens, UniProt P42574); test: GST pull-down binding to caspase-3; conditions: glutathione-Sepharose beads, immunoblot
T3 construct: to produce the 17–20 kDa mature, fully processed large subunit of the active caspase-3 enzyme; a smaller, fully processed, subunit of about 11 kDa; His6; made in house; host or cells: E. coli BL21(DE3)pLysS
T3 sequence (P42574 29-175 limits assumed): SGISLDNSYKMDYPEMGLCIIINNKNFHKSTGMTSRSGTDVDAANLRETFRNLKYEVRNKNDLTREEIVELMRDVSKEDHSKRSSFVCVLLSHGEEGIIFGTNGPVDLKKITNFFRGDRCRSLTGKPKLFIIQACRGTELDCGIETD
T3 sequence (P42574 176-277 limits assumed): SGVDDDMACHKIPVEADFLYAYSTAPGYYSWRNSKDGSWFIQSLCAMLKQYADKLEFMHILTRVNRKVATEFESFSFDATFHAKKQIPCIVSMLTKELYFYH
Procedure: as §2

Substance | potency relative to baculovirus p35 protein at inhibiting cytochrome c-induced processing of pro-caspase-9 (pro-caspase-9 [1]) | cytochrome c-induced pro-caspase-9 processing (in words) (pro-caspase-9 [1]) | concentration to completely abolish cytochrome c-mediated processing of pro-caspase-9 (pro-caspase-9 [1]; 10 μM cytochrome c, 1 mM dATP, 30° C., 30 min) | co-immunoprecipitation of the zymogen form of caspase-9 (in words) (pro-caspase-9 [2]) | caspase-9-induced cleavage of pro-caspase-3 and Ac-DEVD-AFC cleavage activity (in words) (293T cells) | number of apoptotic 293T cells (in words) (293T cells) | binding of caspase-7 (in words) (caspase-7) | pro-caspase-9 processing in reconstituted system (in words) (pro-caspase-9 [3]) | binding of caspase-3 (in words) (caspase-3)
XIAP: X chromosome linked inhibitor of apoptosis protein (Genbank U32974), used mostly as recombinant GST fusion or expressed from plasmid | about 5 fold | nearly completely abolished | less than 0.2 μM | co-immunoprecipitated | markedly reduced | a reduction in the number of apoptotic 293T cells | Specific binding | completely blocked | Specific binding
c-IAP-2: cellular IAP protein c-IAP-2/HIAP-1/hMIHC, recombinant GST fusion or myc-tagged |  | inhibited pro-caspase-9 processing, albeit to a lesser extent |  | co-immunoprecipitated | markedly reduced | a reduction in the number of apoptotic 293T cells | bound | completely blocked | bound
